Data taken from publication PMC6193938, “Characterization of a novel AICARFT inhibitor which potently elevates ZMP and has anti-tumor activity in murine models” (Scientific Reports, 2018).

Columns and labels:
[1] = test system: A101D (melenoma); test: MS detection of ZMP in cultured cells; type: cell-based; settings: Homo sapiens, low folate RPMI media, 16 hours
Method: (§1) Cells lines were acquired from cell banks, see supplemental material, grown using the cell banks recommended culture conditions (Supplemental Table 3). In some experiments noted “low folate” the cells were washed and grown in folate free RPMI-1640 media (Gibco #27016-021) supplemented with 5 ml 1 M Hepes, 5 ml 100 mM Na pyruvate, 2.5 mg/ml glucose and 10% defined FBS (Hyclone #SH30070) per 500 mL media for 5–7 days to deplete intracellular folate levels prior to the start of the experiment. Where noted, cells were maintained in complete “high folate” RPMI-1640 media (ATCC #30-2001) with 10% defined FBS to contrast with the low folate conditions.
(§2) ZMP was detected in cultured cells via mass spec analysis. Cells were plated in 96-well plates at 25,000 cells per well in 100 µL with either high or low folate RPMI media and incubated overnight at 37 °C with 5% CO2. Cells were treated with inhibitor compounds for 16 hours, 0.5% DMSO final concentration. Growth media was decanted and cells were lysed for 10 min at room temperature with 50 µL per well of 1x Sure Fire Lysis buffer (Perkin Elmer, SureFire kit component). Aliquots (40 µL) of standard or sample were combined in a deep 96-well plate with 160 µL of internal standard solution containing ^13C5-ZMP (custom synthesis) and ^13C5-AICAr (custom synthesis) at 100 ng/mL in 40 mM ammonium acetate, pH 4. 400 µL of dichloromethane was added to each sample. Samples were sealed, vortexed for 5 minutes, and placed in the refrigerator for at least 30 minutes. The samples were centrifuged at 4 °C for 10 minutes at 16,600 g. 75 µL of the aqueous layer were transferred to a clean 96-well plate and seal prior to analysis.
(§3) The LC-MS method utilizes a Shimadzu Prominence 20 A HPLC system connected to an AB Sciex 5500™ or an AB Sciex 6500™ triple quadrupole mass spectrometer. Extracted samples were separated using a Thermo Hypercarb™ Javelin guard column (2.1 × 20 mm, 5 µm) with an injection volume of 15 µL and a flow rate of 1 mL/minute.
(§4) ZMP, AICAr and dUMP were detected using positive ion TurboIonSpray® multiple reaction monitoring mode and the data were processed with AB Sciex MultiQuant™. Back-calculated ZMP concentrations were fit to a four-parameter logistic equation using ACTIVITYBASE 4.0 to determine EC50 values relative to the maximum observed metabolite levels.

[2] = test system: NCI-H1299; test: MS detection of ZMP in cultured cells; type: cell-based; settings: Homo sapiens, low folate RPMI media, 16 hours
Method: as §1, §2, §3, §4

[3] = test system: MDA-MB-231met2 cells; test: MS detection of ZMP in cultured cells; type: cell-based, human; settings: regular RPMI, calculated with 4 pL cell volume
Method: To mimic human plasma levels, low folate media is traditionally used in which the folate comes only from the defined fetal bovine serum. […] Because LSN3213128 would be dosed in mice on normal diet, cell line screening was performed under standard tissue culture conditions to identify cell lines sensitive to treatment under high folate conditions. In order to compare tissue culture values with tumor levels, an average 4 pL cell volume[36] was used to calculate cellular ZMP concentrations. In MDA-MB-231[…] cells using regular RPMI, the peak intracellular ZMP levels are about 770 μM while in the salvage deficient A9 cells ZMP is 6,500 μM. […] It is not surprising that in vivo in mice on standard chow where folate plasma levels are >10-fold lower than tissue culture that tumor ZMP levels are also lower. […] ZMP was detected in cultured cells via mass spec analysis. Cells were plated in 96-well plates at 25,000 cells per well in 100 μL with either high or low folate RPMI media and incubated overnight at 37 °C with 5% CO2. […] […] dUMP were detected using positive ion TurboIonSpray® multiple reaction monitoring mode and the data were processed with AB Sciex MultiQuantTM. Back-calculated ZMP concentrations were fit to a four-parameter logistic equation using ACTIVITYBASE 4.0 to determine EC50 values relative to the maximum observed metabolite levels.

[4] = molecular target: T1, CHK2 (Homo sapiens, UniProt O96017); test: CEREP protein kinase assay; type: biochemical
T1 construct: purchased CEREP Panlabs (Eurofins)
T1 sequence (O96017 whole entry): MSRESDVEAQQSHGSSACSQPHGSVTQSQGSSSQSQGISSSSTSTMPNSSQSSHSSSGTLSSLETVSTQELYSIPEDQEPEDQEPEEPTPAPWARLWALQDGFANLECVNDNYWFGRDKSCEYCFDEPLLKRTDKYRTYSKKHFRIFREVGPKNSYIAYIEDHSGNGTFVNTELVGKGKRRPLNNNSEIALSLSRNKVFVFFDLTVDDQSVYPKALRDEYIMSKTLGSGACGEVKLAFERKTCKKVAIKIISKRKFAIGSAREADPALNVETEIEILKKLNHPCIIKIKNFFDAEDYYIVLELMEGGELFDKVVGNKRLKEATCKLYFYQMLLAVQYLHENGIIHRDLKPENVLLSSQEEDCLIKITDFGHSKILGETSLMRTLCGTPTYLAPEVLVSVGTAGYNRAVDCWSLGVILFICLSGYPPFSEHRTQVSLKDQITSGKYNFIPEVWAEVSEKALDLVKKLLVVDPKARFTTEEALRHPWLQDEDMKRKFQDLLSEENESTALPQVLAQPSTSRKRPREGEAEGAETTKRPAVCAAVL

[5] = molecular target: T2, FGR (Homo sapiens, UniProt P09769); test: CEREP protein kinase assay; type: biochemical
T2 construct: purchased CEREP Panlabs (Eurofins)
T2 sequence (P09769 whole entry): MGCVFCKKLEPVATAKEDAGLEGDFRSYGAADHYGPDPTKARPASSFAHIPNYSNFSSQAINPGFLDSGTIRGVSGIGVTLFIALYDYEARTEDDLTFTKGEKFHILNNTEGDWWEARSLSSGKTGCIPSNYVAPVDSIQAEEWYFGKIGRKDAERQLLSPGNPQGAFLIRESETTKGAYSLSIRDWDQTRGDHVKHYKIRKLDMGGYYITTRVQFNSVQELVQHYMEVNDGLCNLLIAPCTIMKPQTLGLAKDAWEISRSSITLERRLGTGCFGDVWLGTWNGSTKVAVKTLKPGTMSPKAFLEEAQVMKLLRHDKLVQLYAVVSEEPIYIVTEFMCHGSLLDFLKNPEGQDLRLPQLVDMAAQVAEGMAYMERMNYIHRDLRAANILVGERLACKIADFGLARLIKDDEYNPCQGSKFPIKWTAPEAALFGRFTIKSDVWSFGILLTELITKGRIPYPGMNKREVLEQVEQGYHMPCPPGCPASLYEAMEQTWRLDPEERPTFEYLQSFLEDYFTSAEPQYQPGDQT

[6] = molecular target: T3, IRAK4 (Homo sapiens, UniProt Q9NWZ3); test: CEREP protein kinase assay; type: biochemical
T3 construct: purchased CEREP Panlabs (Eurofins)
T3 sequence (Q9NWZ3 1-460): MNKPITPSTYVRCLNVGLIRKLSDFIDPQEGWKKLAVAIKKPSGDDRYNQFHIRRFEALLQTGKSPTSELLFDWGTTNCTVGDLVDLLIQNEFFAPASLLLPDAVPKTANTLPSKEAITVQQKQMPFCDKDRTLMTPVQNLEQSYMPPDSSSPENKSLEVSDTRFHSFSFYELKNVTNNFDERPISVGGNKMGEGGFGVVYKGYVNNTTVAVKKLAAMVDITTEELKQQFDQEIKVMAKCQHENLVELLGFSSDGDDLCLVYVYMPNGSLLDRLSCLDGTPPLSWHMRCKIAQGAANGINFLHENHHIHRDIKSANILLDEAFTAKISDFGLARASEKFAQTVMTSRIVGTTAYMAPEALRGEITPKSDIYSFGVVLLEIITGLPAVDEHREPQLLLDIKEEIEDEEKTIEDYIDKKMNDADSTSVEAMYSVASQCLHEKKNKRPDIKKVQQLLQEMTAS

[7] = molecular target: T4, ROCK2 (Homo sapiens, UniProt O75116); test: CEREP protein kinase assay; type: biochemical
T4 construct: purchased CEREP Panlabs (Eurofins)
T4 sequence (O75116 whole entry): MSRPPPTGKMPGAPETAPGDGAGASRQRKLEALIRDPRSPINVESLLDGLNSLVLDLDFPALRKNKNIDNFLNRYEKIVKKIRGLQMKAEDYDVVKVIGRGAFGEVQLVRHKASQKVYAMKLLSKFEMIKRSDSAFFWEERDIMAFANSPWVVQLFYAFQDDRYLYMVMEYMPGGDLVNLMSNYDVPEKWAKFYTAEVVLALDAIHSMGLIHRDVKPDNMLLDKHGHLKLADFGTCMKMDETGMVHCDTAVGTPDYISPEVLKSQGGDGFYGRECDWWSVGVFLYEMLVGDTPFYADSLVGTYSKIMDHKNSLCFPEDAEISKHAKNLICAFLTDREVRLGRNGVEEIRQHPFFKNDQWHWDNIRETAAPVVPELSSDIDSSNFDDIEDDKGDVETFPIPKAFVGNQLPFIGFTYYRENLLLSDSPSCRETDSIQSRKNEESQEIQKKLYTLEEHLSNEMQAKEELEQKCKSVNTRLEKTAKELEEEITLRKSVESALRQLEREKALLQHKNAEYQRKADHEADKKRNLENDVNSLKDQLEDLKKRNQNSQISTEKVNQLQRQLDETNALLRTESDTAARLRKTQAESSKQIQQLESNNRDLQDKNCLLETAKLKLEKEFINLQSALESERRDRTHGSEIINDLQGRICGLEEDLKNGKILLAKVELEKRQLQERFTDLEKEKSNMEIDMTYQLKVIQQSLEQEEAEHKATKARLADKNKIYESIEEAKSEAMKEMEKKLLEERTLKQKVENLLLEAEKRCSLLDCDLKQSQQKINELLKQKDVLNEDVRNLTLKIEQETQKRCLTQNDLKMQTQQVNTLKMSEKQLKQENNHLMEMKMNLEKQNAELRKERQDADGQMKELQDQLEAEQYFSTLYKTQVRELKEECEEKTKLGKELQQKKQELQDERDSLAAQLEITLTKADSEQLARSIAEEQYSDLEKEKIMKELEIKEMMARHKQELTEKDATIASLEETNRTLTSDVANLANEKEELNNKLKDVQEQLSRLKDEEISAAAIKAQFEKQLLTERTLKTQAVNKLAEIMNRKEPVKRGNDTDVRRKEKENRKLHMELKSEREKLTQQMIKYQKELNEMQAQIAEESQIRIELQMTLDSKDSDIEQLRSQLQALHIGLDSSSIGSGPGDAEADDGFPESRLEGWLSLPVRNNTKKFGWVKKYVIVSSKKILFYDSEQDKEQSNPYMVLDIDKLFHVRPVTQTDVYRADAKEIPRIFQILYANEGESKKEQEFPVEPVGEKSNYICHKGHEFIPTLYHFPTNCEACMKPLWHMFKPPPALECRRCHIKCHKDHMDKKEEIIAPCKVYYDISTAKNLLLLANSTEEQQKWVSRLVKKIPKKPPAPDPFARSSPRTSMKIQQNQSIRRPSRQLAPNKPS

[8] = molecular target: T5, TYK2 (Homo sapiens, UniProt P29597); test: CEREP protein kinase assay; type: biochemical
T5 construct: purchased CEREP Panlabs (Eurofins)
T5 sequence (P29597 whole entry): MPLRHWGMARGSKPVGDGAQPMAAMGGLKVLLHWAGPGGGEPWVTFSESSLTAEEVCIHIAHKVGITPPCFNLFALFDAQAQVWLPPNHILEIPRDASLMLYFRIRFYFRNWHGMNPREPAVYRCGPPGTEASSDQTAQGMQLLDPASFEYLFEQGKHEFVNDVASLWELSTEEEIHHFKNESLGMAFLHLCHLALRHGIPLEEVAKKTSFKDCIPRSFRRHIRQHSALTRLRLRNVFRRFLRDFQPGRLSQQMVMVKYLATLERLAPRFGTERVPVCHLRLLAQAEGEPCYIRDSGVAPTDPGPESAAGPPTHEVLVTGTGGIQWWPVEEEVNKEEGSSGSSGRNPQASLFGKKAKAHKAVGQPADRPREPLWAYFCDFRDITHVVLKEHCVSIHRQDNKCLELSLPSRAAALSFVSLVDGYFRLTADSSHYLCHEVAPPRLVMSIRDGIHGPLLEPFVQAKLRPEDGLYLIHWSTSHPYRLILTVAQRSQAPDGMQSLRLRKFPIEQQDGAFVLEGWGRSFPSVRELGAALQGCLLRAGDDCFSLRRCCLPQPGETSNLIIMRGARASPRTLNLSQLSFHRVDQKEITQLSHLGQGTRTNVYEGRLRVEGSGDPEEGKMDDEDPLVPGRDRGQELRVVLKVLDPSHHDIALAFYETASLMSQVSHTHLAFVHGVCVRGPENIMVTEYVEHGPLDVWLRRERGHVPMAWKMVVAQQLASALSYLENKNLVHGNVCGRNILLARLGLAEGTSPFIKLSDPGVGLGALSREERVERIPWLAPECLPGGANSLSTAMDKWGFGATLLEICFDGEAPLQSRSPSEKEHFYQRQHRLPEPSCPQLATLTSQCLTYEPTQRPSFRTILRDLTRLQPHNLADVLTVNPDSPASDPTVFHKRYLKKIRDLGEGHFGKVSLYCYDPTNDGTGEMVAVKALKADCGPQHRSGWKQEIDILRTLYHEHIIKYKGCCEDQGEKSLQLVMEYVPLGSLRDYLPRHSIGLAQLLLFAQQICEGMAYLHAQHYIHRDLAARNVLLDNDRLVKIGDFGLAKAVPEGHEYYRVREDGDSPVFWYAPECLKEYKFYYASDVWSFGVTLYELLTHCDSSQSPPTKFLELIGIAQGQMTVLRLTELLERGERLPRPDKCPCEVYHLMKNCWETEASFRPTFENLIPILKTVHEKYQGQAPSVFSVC

**Q.** `O=c1[nH]ccc2cc(F)c(NS(=O)(=O)c3ccc(N4CC[C@@H](O)C4)s3)cc12` [LSN3213128, N-(6-Fluoro-1-oxo-1,2-dihydroisoquinolin-7-yl)-5-[(3R)-3-hydroxypyrrolidin-1-yl]thiophene-2-sulfonamide] was tested. Which EC50 [1] did it give?
**A.** 2.3 nM

**Q.** What about the EC50 [2] of the same compound?
**A.** 4.1 nM

**Q.** What about the “peak intracellular ZMP levels” value [3] of the same compound?
**A.** about 770 μM

**Q.** What about the inhibition at 0.2 µM ([4]; @ 0.2 uM) of the same compound?
**A.** -9.59%

**Q.** What about the inhibition at 2 µM ([4]; @ 2 uM) of the same compound?
**A.** 14.3%

**Q.** And the inhibition at 20 µM ([4]; @ 20 uM)?
**A.** 8.93%

**Q.** What about the inhibition at 0.2 µM ([5]; @ 0.2 uM) of the same compound?
**A.** -8.47%

**Q.** What about the inhibition at 2 µM ([5]; @ 2 uM) of the same compound?
**A.** 3.62%

**Q.** What about the inhibition at 20 µM ([5]; @ 20 uM) of the same compound?
**A.** 42.3%

**Q.** What about the inhibition at 0.2 µM ([6]; @ 0.2 uM) of the same compound?
**A.** -4.69%

**Q.** What about the inhibition at 2 µM ([6]; @ 2 uM) of the same compound?
**A.** 0.428%

**Q.** And the inhibition at 20 µM ([6]; @ 20 uM)?
**A.** -0.827%

**Q.** And the inhibition at 0.2 µM ([7]; @ 0.2 uM)?
**A.** -3.09%

**Q.** And the inhibition at 2 µM ([7]; @ 2 uM)?
**A.** 4.72%

**Q.** What about the inhibition at 20 µM ([7]; @ 20 uM) of the same compound?
**A.** 5.81%

**Q.** What about the inhibition at 0.2 µM ([8]; @ 0.2 uM) of the same compound?
**A.** -6.85%

**Q.** And the inhibition at 2 µM ([8]; @ 2 uM)?
**A.** -1.32%

**Q.** What about the inhibition at 20 µM ([8]; @ 20 uM) of the same compound?
**A.** 35.1%
